Laboratory results as given in a melting point compilation (Tetko et al.; mined from patent text by program, amines drawn as free bases though some values may be those of a salt).

| SMILES | melting point [°C] |
| --- | --- |
| O=[N+]([O-])c1cc(CO)ccc1Oc1ccc(OCc2ccccc2)cc1 | 72 to 73 |
| CC1=C(C)c2cc(Br)ccc2Oc2ccccc21 | 112 to 114 |
| COc1cc2ncnc(N3CCN(C(=S)Nc4cccc(NC(C)=O)c4)CC3)c2cc1OC | 207 to 208 |
| Oc1cc2ncnc(Nc3cccc(Cl)c3)c2cc1O | 233 to 235 |
| CCN1c2ncccc2C(=O)Nc2c(C)cc(N3CCC(O)C3)nc21 (configuration not stated) | 131 to 134 |
| CCCn1c(COCC)nc2c(N)nc3cc(OC4CCNCC4)ccc3c21 | 202 to 204 |
| CN=C(NC#N)S(C)=O (configuration not stated) | 116 |
| CCCCc1cc2cc(C(=O)OCC)ccn2c1 | 47 to 48 |
| O=c1[nH]nc2n1C=Cc1ccccc1C2 | 208 to 210 |
| CC1Cc2cc(-n3ccnc3)ccc2C1=O (configuration not stated) | 103 to 106 |
| COc1ccc(N(CC(=O)NCC(=O)O)C(=O)c2ccc(Cl)cc2)cc1 | 138 to 140 |
| CCOC(=O)c1c(C)cc(C(=O)O)c(NC(C)=O)c1C | 164 |
| CN1CCN(c2ncnc3c(N)cccc23)C1=O | 187 to 189 |
| O=C(c1ccccc1)c1ccc(Cl)cc1Cl | 41 to 43 |
| O=c1c2cc(F)c(N3CCCC3)cc2n(Cc2ccccc2)c(=O)n1O | 234 to 236 |
| CC(=O)Oc1ccc(-c2[nH]c3ccc(Cl)cc3c2-c2ccc(S(C)(=O)=O)cc2)cc1 | 248 to 250 |
| COc1ccc(CN/C=C2\C(=O)NC(=O)c3cccc(Br)c32)cc1O | 204 to 206 |
| CCC(=O)NCCC1=CCc2ccc(OC)cc21 | 61 to 63 |
| COCCOc1ccc(CCNC(=O)/C=C/c2cccs2)cc1S(N)(=O)=O | 140 |
| CC1(C)COC(c2cc(-c3ccncc3)n(-c3ccc(F)cc3)n2)OC1 | 150 to 151 |
| Clc1cccc2c3c([nH]c12)CCCC3 | 144 to 146 |
| O=C(c1ccccc1)C1OC1c1ccccc1 (configuration not stated) | 90 |
| Cc1c(C)n(CC2CCCCC2)c2c(OCc3ccc(F)cc3)nncc12 | 108 to 109 |
| Cc1cc2nc(C(C)C)c(CO)c(-c3ccc(F)cc3)n2n1 | 188 |
| O=C(Oc1ccccc1)n1c(=O)c(F)cn(C2CC(OCc3ccccc3)C(CO)O2)c1=O (configuration not stated) | 110 to 112 |
| CC1=C(C(=O)OC(C)C)C(c2cccc([N+](=O)[O-])c2)n2c(cc(=O)n2C(=O)c2ccccc2)N1 (configuration not stated) | 201 to 203 |

| SMILES | melting point [°C] |
| --- | --- |
| CCC(=O)NCCC1CCc2ccc3nn(C)cc3c21 (configuration not stated) | 105 to 107 |
| Cc1ccccc1C(=O)Nc1ccc(C(=O)N2Cc3ccccc3-c3ccccc32)cc1 | 190 to 194 |
| CCCc1c2nc(C(=O)OC)cc(Br)c2cc2c(=O)cc(C(=O)OCC)oc12 | 177 to 178 |
| O=C(O)Cc1ccc(C2CCCCC2)c2ccccc12 | 161 to 163 |
| CC(C)(C)NC(=O)NCc1cccc2c1C(=O)N(C1CCC(=O)NC1=O)C2=O (configuration not stated) | 186 to 188 |
| Cc1cc(N)ccc1C(O)c1ccccn1 (configuration not stated) | 102 to 104 |
| CON1CCC2(CC1)NC(=O)C(c1cc(Br)c(F)cc1C)=C2O | 229 to 230 |
| Oc1cc(Cl)ccc1Br | 56 |
| C=CC(=O)OCCOc1ccc(-c2nc(-c3ccc(Cl)cc3)nc(-c3ccc(OCCOC(=O)C=C)cc3O)n2)c(O)c1 | 115 to 120 |
| COC(=O)C(=O)c1ccc(OCC(=O)c2ccc3ccccc3c2)cc1 | 120 to 121 |
| NC(=O)C12CCCC(C1)C1CCC2C1 (configuration not stated) | 173 to 174 |
| CCCN(Cc1ccc(-c2ccccc2-c2nc(=O)o[nH]2)cc1)c1nc(C)ncc1C(=O)O | 182 to 186 |
| Cc1cc2nc(NC(=O)CO)sc2cc1C | 206 to 208 |
| O=C(O)C1CC(c2ccc(-c3ccc(N4C[C@H](Cn5ccnn5)OC4=O)cc3F)cn2)=NO1 (some centres not stated) | 190 to 194 |
| O=C(O)COc1ccc(C(F)(F)F)cc1C(=O)NCc1ccc(Br)cc1F | 169 to 170 |
| O=C1N(Cc2ccc(Cl)cc2)c2ccccc2C1(O)c1cccs1 (configuration not stated) | 140 to 143 |
| O=[N+]([O-])c1ccc2nc(CO)[nH]c2c1 | 157 to 162 |
| CCOC(=O)c1ccc2cc(N=[N+]=[N-])ccn2c1=O | 145 to 150 |
| CN(C)C=Nc1ncc(-c2ccc(C(F)(F)F)cc2)cc1C(F)(F)F | 114 |
| O=S(=O)(Nc1ncc(Br)nc1OCc1cnccn1)c1cccc(Cl)c1Cl | 207 to 209 |
| COC(=O)C[C@H]1N=C(c2ccccc2Cl)c2cc(Cl)ccc2NC1=O | 168 to 170 |
| CCc1csc2[nH]c(=O)c(=O)[nH]c12 | > 300 |
| NS(=O)(=O)c1cccc(S(=O)(=O)NC2CCC2)c1 | 140 to 143 |
| CC(C)(C)C(=O)c1c[nH]nc1N | 159 to 160 |
| COc1ccc(S(=O)(=O)NCC(O)(Cn2cncn2)c2ccc(Cl)cc2Cl)cc1 (configuration not stated) | 56 to 66 |
| COc1c(C)c(N2CCN(c3ccc(C(F)(F)F)cc3)CC2)c(C)c2c1OC(C)(C)C2 | 186 to 187 |
